Measured values taken from the supplement of paper PMC12533247.
± gives the standard deviation of the averaged measurements.

What was measured:
[1] = system: HSV-1 K26-GFP infected 3D skin equivalent; assay: % activity on HSV-1 GFP signal (0 = infected DMSO control, -100 = uninfected control); higher = higher signal (negative = inhibition / toxicity); conditions: time (h post infection): 48
Description: (§1)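 Triplicate dose-response (0.04 to 10 uM) of 11 top compounds in 3D bioprinted skin equivalents (submerged and ALI models) infected with GFP-HSV-1 K26 at MOI 0.1 and fixed at 48 hpi. GFP (virus) and tdTomato (fibroblast viability) signals are normalised to per-plate controls.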

[2] = system: HSV-1 K26-GFP infected primary human skin cells; assay: % change of HSV-1 GFP signal vs untreated infected cells; higher = less antiviral inhibition; conditions: cell type: primary dermal fibroblasts, time (h post infection): 48
Description: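 2D primary donor-derived dermal fibroblasts infected with GFP-HSV-1 K26 at MOI 1, treated 1 h later with compound dilutions and read at 48 hpi on IncuCyte. GFP integrated intensity is normalised to mock-infected and untreated infected wells (% change; -100 = full inhibition).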

[3] = system: HSV-1 K26-GFP infected 3D skin equivalent; assay: % change of tdTomato fibroblast signal relative to infected DMSO control; higher = higher signal (negative = inhibition / toxicity); conditions: time (h post infection): 48
Description: as §1

[4] = system: primary dermal fibroblasts; assay: % change in live cells vs DMSO control; higher = less cytotoxic; conditions: time (h post treatment): 48
Description: (§2)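 Cytotoxicity in uninfected 2D primary donor keratinocytes (20 h post treatment) and fibroblasts (48 h post treatment), measured with NucSpot live/dead dyes on IncuCyte. Live cells are normalised to the 0.2% DMSO control and shown as % change. Three biological replicates for each of donors 3, 4 and 5.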

primary keratinocytes = assay: as above; conditions: time (h post treatment): 20
Description: as §2

Compound: CC1(C)CC(=O)c2c(C(F)(F)F)nn(-c3ccc(C(N)=O)c(N[C@H]4CC[C@H](O)CC4)c3)c2C1 [SNX-2112]
- % activity on HSV-1 GFP signal ([1]; 0.041152 µM, model: ALI): -92.8 ± 5%
- % activity on HSV-1 GFP signal ([1]; 0.041152 µM, model: submerged): -58.7 ± 8.8%
- % activity on HSV-1 GFP signal ([1]; 0.123457 µM, model: ALI): -99.7 ± 5.3%
- % activity on HSV-1 GFP signal ([1]; 0.123457 µM, model: submerged): -81.7 ± 5.9%
- % activity on HSV-1 GFP signal ([1]; 0.37037 µM, model: ALI): -98.9 ± 6.7%
- % activity on HSV-1 GFP signal ([1]; 0.37037 µM, model: submerged): -98.1 ± 7.8%
- % activity on HSV-1 GFP signal ([1]; 1.111111 µM, model: ALI): -103 ± 4.6%
- % activity on HSV-1 GFP signal ([1]; 1.111111 µM, model: submerged): -101 ± 4.8%
- % activity on HSV-1 GFP signal ([1]; 3.33333 µM, model: ALI): -98.4 ± 6%
- % activity on HSV-1 GFP signal ([1]; 3.33333 µM, model: submerged): -105 ± 3.8%
- % activity on HSV-1 GFP signal ([1]; 10 µM, model: ALI): -107 ± 7.2%
- % activity on HSV-1 GFP signal ([1]; 10 µM, model: submerged): -102 ± 6.5%
- % change of HSV-1 GFP signal ([2]; 0.001 µM, donor: 3): 3.58 ± 4.6%
- % change of HSV-1 GFP signal ([2]; 0.001 µM, donor: 4): 7.21 ± 14%
- % change of HSV-1 GFP signal ([2]; 0.003 µM, donor: 3): 2.41 ± 10%
- % change of HSV-1 GFP signal ([2]; 0.003 µM, donor: 4): 7.68 ± 19%
- % change of HSV-1 GFP signal ([2]; 0.0091 µM, donor: 3): 3.09 ± 24%
- % change of HSV-1 GFP signal ([2]; 0.0091 µM, donor: 4): 10 ± 30%
- % change of HSV-1 GFP signal ([2]; 0.0274 µM, donor: 3): -21.5 ± 25%
- % change of HSV-1 GFP signal ([2]; 0.0274 µM, donor: 4): -8.2 ± 12%
- % change of HSV-1 GFP signal ([2]; 0.0823 µM, donor: 3): -87.9 ± 5.2%
- % change of HSV-1 GFP signal ([2]; 0.0823 µM, donor: 4): -77.6 ± 1.4%
- % change of HSV-1 GFP signal ([2]; 0.2469 µM, donor: 3): -98.67 ± 0.4%
- % change of HSV-1 GFP signal ([2]; 0.2469 µM, donor: 4): -98.8 ± 1%
- % change of HSV-1 GFP signal ([2]; 0.7407 µM, donor: 3): -99.34 ± 0.5%
- % change of HSV-1 GFP signal ([2]; 0.7407 µM, donor: 4): -99.59 ± 0.4%
- % change of HSV-1 GFP signal ([2]; 2.2222 µM, donor: 3): -99.32 ± 0.49%
- % change of HSV-1 GFP signal ([2]; 2.2222 µM, donor: 4): -99.73 ± 0.3%
- % change of HSV-1 GFP signal ([2]; 6.6667 µM, donor: 3): -99.47 ± 0.27%
- % change of HSV-1 GFP signal ([2]; 6.6667 µM, donor: 4): -99.66 ± 0.37%
- % change of HSV-1 GFP signal ([2]; 20 µM, donor: 3): -99.48 ± 0.42%
- % change of HSV-1 GFP signal ([2]; 20 µM, donor: 4): -99.71 ± 0.22%
- % change of tdTomato fibroblast signal ([3]; 0.041152 µM, model: ALI): 0.975 ± 12%
- % change of tdTomato fibroblast signal ([3]; 0.041152 µM, model: submerged): -4.63 ± 9.5%
- % change of tdTomato fibroblast signal ([3]; 0.123457 µM, model: ALI): -7.26 ± 3.1%
- % change of tdTomato fibroblast signal ([3]; 0.123457 µM, model: submerged): -2.18 ± 9.6%
- % change of tdTomato fibroblast signal ([3]; 0.37037 µM, model: ALI): -17.9 ± 3.2%
- % change of tdTomato fibroblast signal ([3]; 0.37037 µM, model: submerged): -23.3 ± 11%
- % change of tdTomato fibroblast signal ([3]; 1.111111 µM, model: ALI): -33.5 ± 9.5%
- % change of tdTomato fibroblast signal ([3]; 1.111111 µM, model: submerged): -52.2 ± 3.6%
- % change of tdTomato fibroblast signal ([3]; 3.33333 µM, model: ALI): -36.3 ± 4.9%
- % change of tdTomato fibroblast signal ([3]; 3.33333 µM, model: submerged): -55 ± 2.7%
- % change of tdTomato fibroblast signal ([3]; 10 µM, model: ALI): -32.3 ± 6.5%
- % change of tdTomato fibroblast signal ([3]; 10 µM, model: submerged): -50.9 ± 1.7%
- % change in live cells ([4]; 0.082305 µM, donor: 3): -17.7 ± 12%
- % change in live cells ([4]; 0.082305 µM, donor: 4): 14.3 ± 4%
- % change in live cells ([4]; 0.082305 µM, donor: 5): 9 ± 19%
- % change in live cells ([4]; 0.246914 µM, donor: 3): -20.7 ± 12%
- % change in live cells ([4]; 0.246914 µM, donor: 4): 4.67 ± 5.1%
- % change in live cells ([4]; 0.246914 µM, donor: 5): -1.67 ± 24%
- % change in live cells ([4]; 0.740741 µM, donor: 3): -23 ± 14%
- % change in live cells ([4]; 0.740741 µM, donor: 4): 0.333 ± 10%
- % change in live cells ([4]; 0.740741 µM, donor: 5): -1.67 ± 29%
- % change in live cells ([4]; 2.22222 µM, donor: 3): -22.3 ± 14%
- % change in live cells ([4]; 2.22222 µM, donor: 4): 0.667 ± 8.6%
- % change in live cells ([4]; 2.22222 µM, donor: 5): -8.67 ± 26%
- % change in live cells ([4]; 6.66667 µM, donor: 3): -22.7 ± 15%
- % change in live cells ([4]; 6.66667 µM, donor: 4): 6.33 ± 9.4%
- % change in live cells ([4]; 6.66667 µM, donor: 5): -10.3 ± 23%
- % change in live cells ([4]; 20 µM, donor: 3): -22.7 ± 16%
- % change in live cells ([4]; 20 µM, donor: 4): 7.33 ± 12%
- % change in live cells ([4]; 20 µM, donor: 5): -13.7 ± 20%
- % change in live cells ([4]; 60 µM, donor: 3): -21 ± 27%
- % change in live cells ([4]; 60 µM, donor: 4): 1 ± 18%
- % change in live cells ([4]; 60 µM, donor: 5): -32.3 ± 9.3%
- % change in live cells (primary keratinocytes; 0.082305 µM, donor: 3): -14.3 ± 3.2%
- % change in live cells (primary keratinocytes; 0.082305 µM, donor: 4): 4.33 ± 5.7%
- % change in live cells (primary keratinocytes; 0.082305 µM, donor: 5): -22 ± 11%
- % change in live cells (primary keratinocytes; 0.246914 µM, donor: 3): -38.3 ± 1.5%
- % change in live cells (primary keratinocytes; 0.246914 µM, donor: 4): -29 ± 21%
- % change in live cells (primary keratinocytes; 0.246914 µM, donor: 5): -60.7 ± 4.5%
- % change in live cells (primary keratinocytes; 0.740741 µM, donor: 3): -40.3 ± 5.7%
- % change in live cells (primary keratinocytes; 0.740741 µM, donor: 4): -53.3 ± 14%
- % change in live cells (primary keratinocytes; 0.740741 µM, donor: 5): -72.3 ± 2.5%
- % change in live cells (primary keratinocytes; 2.22222 µM, donor: 3): -43.7 ± 4.5%
- % change in live cells (primary keratinocytes; 2.22222 µM, donor: 4): -58.7 ± 11%
- % change in live cells (primary keratinocytes; 2.22222 µM, donor: 5): -77 ± 2%
- % change in live cells (primary keratinocytes; 6.66667 µM, donor: 3): -49 ± 7.5%
- % change in live cells (primary keratinocytes; 6.66667 µM, donor: 4): -70 ± 6.2%
- % change in live cells (primary keratinocytes; 6.66667 µM, donor: 5): -79 ± 3.5%
- % change in live cells (primary keratinocytes; 20 µM, donor: 3): -59.3 ± 19%
- % change in live cells (primary keratinocytes; 20 µM, donor: 4): -74 ± 1.7%
- % change in live cells (primary keratinocytes; 20 µM, donor: 5): -76.7 ± 5.5%
- % change in live cells (primary keratinocytes; 60 µM, donor: 3): -79.3 ± 3.8%
- % change in live cells (primary keratinocytes; 60 µM, donor: 4): -74 ± 14%
- % change in live cells (primary keratinocytes; 60 µM, donor: 5): -57.7 ± 5.5%
